Measurements reported in patent US12234230B2, “Substituted benzyl-triazole compounds for Cbl-b inhibition, and further uses thereof” (Nurix Therapeutics, Inc., priority 2019, dated 2025).

Columns and labels:
[1] = biological target: Cbl-b (Homo sapiens (Human), UniProt Q13191); test: Cbl-b displacement assay (Cbl-b inhibition assay), Biological Example 1; format: binding; conditions: 0.125 nM Cbl-b final concentration (Low); read-out: Cbl-b activity IC50 (Low)
Description: The ability of candidate compounds to displace a known inhibitor and thereby inhibit Cbl-b activity was measured by monitoring the interaction of Cbl-b with a fluorophore-labeled probe in the presence of the candidate compound.
Following the one hour incubation, the plates were read for TR-FRET signal at 520/620 nm using an Envision plate reader (Perkin Elmer).

[2] = test system: primary human total T-cells; test: Primary human total T-cell activation (IL-2 secretion, CD25 surface staining), Biological Example 2; conditions: fold change over baseline; for CD25 staining CD3/CD28 0.3 μM / IL-2 secretion CD3/CD28 0.3 μM: 0.3 μM inhibitor; for CD25 staining CD3/CD28 0.3 μM / IL-2 secretion CD3/CD28 0.3 μM / IL-2 secretion CD3/CD28 1 μM / CD25 staining CD3/CD28 1 μM: anti-CD3 and anti-CD28 co-stimulation; for IL-2 secretion CD3/CD28 1 μM / CD25 staining CD3 1 μM / IL-2 secretion CD3 1 μM / CD25 staining CD3/CD28 1 μM: 1 μM inhibitor; for CD25 staining CD3 1 μM / IL-2 secretion CD3 1 μM / CD25 staining CD3 3 μM / IL-2 secretion CD3 3 μM: anti-CD3 stimulation alone; for CD25 staining CD3 3 μM / IL-2 secretion CD3 3 μM: 3 μM inhibitor

Sequence of Cbl-b (Q13191 36-427): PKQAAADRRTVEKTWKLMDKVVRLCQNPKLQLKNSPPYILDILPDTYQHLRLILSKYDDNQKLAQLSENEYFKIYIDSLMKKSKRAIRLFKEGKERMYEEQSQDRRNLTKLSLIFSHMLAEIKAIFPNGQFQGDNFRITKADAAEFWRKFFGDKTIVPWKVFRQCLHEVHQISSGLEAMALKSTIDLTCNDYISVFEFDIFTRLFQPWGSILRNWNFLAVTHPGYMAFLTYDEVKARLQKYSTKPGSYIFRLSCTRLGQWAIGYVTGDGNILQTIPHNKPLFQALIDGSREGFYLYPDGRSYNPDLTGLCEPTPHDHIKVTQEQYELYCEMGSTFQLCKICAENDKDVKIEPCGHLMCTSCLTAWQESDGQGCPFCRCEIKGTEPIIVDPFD

Row | IC50 [1] | SMILES | CD25 staining CD3/CD28 0.3 μM [2] | IL-2 secretion CD3/CD28 0.3 μM [2] | IL-2 secretion CD3/CD28 1 μM [2] | CD25 staining CD3 1 μM [2] | IL-2 secretion CD3 1 μM [2] | CD25 staining CD3 3 μM [2] | IL-2 secretion CD3 3 μM [2] | CD25 staining CD3/CD28 1 μM [2]
1 | 5 to 20 nM | CO[C@H]1C[C@@](c2cccc(N3Cc4c(cc(CN5CCC(F)(F)[C@H](C)C5)cc4C(F)(F)F)C3=O)c2)(c2nncn2C)C1 [Compound 33, 6-(((R)-4,4-difluoro-3-methylpiperidin-1-yl)methyl)-2-(3-((1s,3S)-3-methoxy-1-(4-methyl-4H-1,2,4-triazol-3-yl)cyclobutyl)phenyl)-4-(trifluoromethyl)isoindolin-1-one] | B (B indicates 1.24-1.39 fold) | C (C indicates <20 fold) | B (B indicates 20-35 fold) | A (A indicates >2.5 fold) | A (A indicates >1.1 fold) | A (A indicates >2.5 fold) | A (A indicates >1.1 fold) | 
2 | 5 to 20 nM | C[C@@H]1CN(Cc2cc3c(c(C(F)(F)F)c2)CN(c2cccc([C@]4(c5nncn5C)C[C@H](O)C4)c2)C3=O)CCC1(F)F [Compound 34, 6-(((R)-4,4-difluoro-3-methylpiperidin-1-yl)methyl)-2-(3-(trans-3-hydroxy-1-(4-methyl-4H-1,2,4-triazol-3-yl)cyclobutyl)phenyl)-4-(trifluoromethyl)isoindolin-1-one] | B (B indicates 1.24-1.39 fold) | C (C indicates <20 fold) | A (A indicates >35 fold) | B (B indicates 1.5-2.5 fold) | A (A indicates >1.1 fold) | B (B indicates 1.5-2.5 fold) | A (A indicates >1.1 fold) | B (B indicates 1.24-1.39 fold)
3 | < 5 nM | C[C@H]1CCCN(Cc2cc3c(c(C(F)(F)F)c2)CN(c2cccc([C@]4(c5nncn5C)C[C@H](O)C4)c2)C3=O)C1 [Compound 35, 2-(3-((1r,3S)-3-hydroxy-1-(4-methyl-4H-1,2,4-triazol-3-yl)cyclobutyl)phenyl)-6-(((S)-3-methylpiperidin-1-yl)methyl)-4-(trifluoromethyl)isoindolin-1-one] | B (B indicates 1.24-1.39 fold) | B (B indicates 20-35 fold) | B (B indicates 20-35 fold) | A (A indicates >2.5 fold) | B (B indicates 0.70-1.1 fold) | A (A indicates >2.5 fold) | B (B indicates 0.70-1.1 fold) | B (B indicates 1.24-1.39 fold)
4 | < 5 nM | CO[C@H]1C[C@](c2cccc(N3Cc4c(cc(CN5CCC(F)(F)[C@H](C)C5)cc4C(F)(F)F)C3=O)c2)(c2nncn2C)C1 [Compound 36, 6-(((R)-4,4-difluoro-3-methylpiperidin-1-yl)methyl)-2-(3-(trans-3-methoxy-1-(4-methyl-4H-1,2,4-triazol-3-yl)cyclobutyl)phenyl)-4-(trifluoromethyl)isoindolin-1-one] |  | C (C indicates <20 fold) | C (C indicates <20 fold) | C (C indicates <1.5 fold) | C (C indicates <0.70 fold) | C (C indicates <1.5 fold) | C (C indicates <0.70 fold) | 
5 | < 5 nM | CO[C@H]1C[C@](c2cccc(N3Cc4c(cc(CN5CCC[C@H](C)C5)cc4C(F)(F)F)C3=O)c2)(c2nncn2C)C1 [Compound 37, 2-(3-((1r,3S)-3-methoxy-1-(4-methyl-4H-1,2,4-triazol-3-yl)cyclobutyl)phenyl)-6-(((S)-3-methylpiperidin-1-yl)methyl)-4-(trifluoromethyl)isoindolin-1-one] | B (B indicates 1.24-1.39 fold) | B (B indicates 20-35 fold) | B (B indicates 20-35 fold) | A (A indicates >2.5 fold) | A (A indicates >1.1 fold) | A (A indicates >2.5 fold) | B (B indicates 0.70-1.1 fold) | 
6 | < 5 nM | C[C@H]1CCCN(Cc2cc3c(c(C(F)(F)F)c2)CN(c2cccc([C@]4(c5nncn5C)C[C@H](C#N)C4)c2)C3=O)C1 [Compound 39, (1S,3r)-3-(4-methyl-4H-1,2,4-triazol-3-yl)-3-(3-(6-(((S)-3-methylpiperidin-1-yl)methyl)-1-oxo-4-(trifluoromethyl)isoindolin-2-yl)phenyl)cyclobutane-1-carbonitrile] | B (B indicates 1.24-1.39 fold) | A (A indicates >35 fold) | A (A indicates >35 fold) | A (A indicates >2.5 fold) | A (A indicates >1.1 fold) | A (A indicates >2.5 fold) | A (A indicates >1.1 fold) | B (B indicates 1.24-1.39 fold)
7 | < 5 nM | C[C@@H]1CN(Cc2cc3c(c(C(F)(F)F)c2)CN(c2cccc([C@]4(c5nncn5C)C[C@H](C#N)C4)c2)C3=O)CCC1(F)F [Compound 40, (1R,3r)-3-(3-(6-(((R)-4,4-difluoro-3-methylpiperidin-1-yl)methyl)-1-oxo-4-(trifluoromethyl)isoindolin-2-yl)phenyl)-3-(4-methyl-4H-1,2,4-triazol-3-yl)cyclobutane-1-carbonitrile] |  | B (B indicates 20-35 fold) | A (A indicates >35 fold) | A (A indicates >2.5 fold) | B (B indicates 0.70-1.1 fold) | A (A indicates >2.5 fold) | B (B indicates 0.70-1.1 fold) | 
8 | < 5 nM | C[C@@H]1CN(Cc2cc3c(c(C(F)(F)F)c2)CN(c2cccc(C4(c5nncn5C)CC5(CC5)C4)c2)C3=O)CCC1(F)F [Compound 41, 6-[[(3R)-4,4-difluoro-3-methyl-1-piperidyl]methyl]-2-[3-[5-(4-methyl-1,2,4-triazol-3-yl)spiro[2.3]hexan-5-yl]phenyl]-4-(trifluoromethyl)isoindolin-1-one] |  | B (B indicates 20-35 fold) | A (A indicates >35 fold) | A (A indicates >2.5 fold) | A (A indicates >1.1 fold) | A (A indicates >2.5 fold) | A (A indicates >1.1 fold) | 
9 | < 5 nM | C[C@@H]1CN(Cc2cc3c(c(C(F)(F)F)c2)CN(c2cccc(C4(c5nncn5C)CC5(CC5)C4)c2)C3=O)CCO1 [Compound 43, (R)-2-(3-(5-(4-methyl-4H-1,2,4-triazol-3-yl)spiro[2.3]hexan-5-yl)phenyl)-6-((2-methylmorpholino)methyl)-4-(trifluoromethyl)isoindolin-1-one] | B (B indicates 1.24-1.39 fold) | B (B indicates 20-35 fold) | A (A indicates >35 fold) | A (A indicates >2.5 fold) | A (A indicates >1.1 fold) | A (A indicates >2.5 fold) | A (A indicates >1.1 fold) | B (B indicates 1.24-1.39 fold)
10 | < 5 nM | Cn1cnnc1C1(c2cccc(N3Cc4c(cc(CN5CCC[C@H](C(F)(F)F)C5)cc4C(F)(F)F)C3=O)c2)CC2(CC2)C1 [Compound 44, (S)-2-(3-(5-(4-methyl-4H-1,2,4-triazol-3-yl)spiro[2.3]hexan-5-yl)phenyl)-4-(trifluoromethyl)-6-((3-(trifluoromethyl)piperidin-1-yl)methyl)isoindolin-1-one] |  | B (B indicates 20-35 fold) | A (A indicates >35 fold) | A (A indicates >2.5 fold) | A (A indicates >1.1 fold) | A (A indicates >2.5 fold) | A (A indicates >1.1 fold) | 
11 | < 5 nM | C[C@@H]1CN(C(C)(C)c2cc3c(c(C(F)(F)F)c2)CN(c2cccc(C4(c5nncn5C)CC5(CC5)C4)c2)C3=O)CCO1 [Compound 45, (R)-2-(3-(5-(4-methyl-4H-1,2,4-triazol-3-yl)spiro[2.3]hexan-5-yl)phenyl)-6-(2-(2-methylmorpholino)propan-2-yl)-4-(trifluoromethyl)isoindolin-1-one] | B (B indicates 1.24-1.39 fold) | B (B indicates 20-35 fold) | B (B indicates 20-35 fold) | A (A indicates >2.5 fold) | A (A indicates >1.1 fold) | A (A indicates >2.5 fold) | A (A indicates >1.1 fold) | 
12 | < 5 nM | C[C@H]1CCCN(Cc2cc3c(c(C(F)(F)F)c2)CN(c2cccc(C4(c5nncn5C)COC4)c2)C3=O)C1 [Compound 46, 6-[[(3S)-3-methyl-1-piperidyl]methyl]-2-[3-[3-(4-methyl-1,2,4-triazol-3-yl)oxetan-3-yl]phenyl]-4-(trifluoromethyl)isoindolin-1-one] | B (B indicates 1.24-1.39 fold) | A (A indicates >35 fold) | A (A indicates >35 fold) | B (B indicates 1.5-2.5 fold) | A (A indicates >1.1 fold) | A (A indicates >2.5 fold) | A (A indicates >1.1 fold) | B (B indicates 1.24-1.39 fold)
